# Assay results published in patent US7816535B2, “Vinyl-phenyl derivatives for inflammation and immune-related uses” (Synta Pharmaceuticals Corp., priority 2006, dated 2010).
# Structures can show the parent of a compound that is named as a salt.
# Tested on: IL-2 production
# Test: Inhibition of IL-2 production in PHA-activated Jurkat cells (ELISA)
# Format: cell-based
# Conditions: Homo sapiens, Jurkat, 20 h, PHA 2.5 μg/mL, IL-2 ELISA
# Description: Jurkat cells were placed in a 96 well plate (0.5 million cells per well in 1% FBS medium) then a test compound of this invention was added at different concentrations. After 10 minutes, the cells were activated with PHA (final concentration 2.5 μg/mL) and incubated for 20 hours at 37° C. under CO2. The final volume was 200 μL. Following incubation, the cells were centrifuged and the supernatants collected and stored at −70° C. prior to assaying for IL-2 production. A commercial ELISA kit (IL-2 Eli-pair, Diaclone Research, Besancon, France) was used to detect production of IL-2, from which dose response curves were obtained. The IC50 value was calculated as the concentration at which 50% of maximum IL-2 production after stimulation was inhibited versus a non-stimulation control.
row,Structure (SMILES),IC50 [nM]
1,"CC(=O)[C@@H]1CCC(C)=C(c2ccc(NC(=O)c3ccncc3C)cc2)C1 [Compound 6, 3-Methyl-N-[4-(2-methyl-5(R)-acetyl-cyclohex-1-enyl)-phenyl]-isonicotinamide]",68
2,"CC1=C(c2ccc(NC(=O)c3ccncc3F)cc2)CN(c2nccs2)CC1 [Compound 65, N-[4-(1-thiazol-2-yl-4-methyl-1,2,5,6-tetrahydro-pyridin-3-yl)-phenyl]-3-fluoro-isonicotinamide]",7.7
3,"CCOC(=O)C1=C(c2ccc(NC(=O)c3c(F)cccc3F)cc2)CCCC1 [Compound 99, N-[4-(2-ethyoxycarbonyl-cyclohex-1-enyl)-phenyl]-2,6-difluoro-benzamide]",282
4,"CCOC(=O)N1C=C(c2ccc(NC(=O)c3c(F)cccc3F)cc2)C(C)CC1 (stereo not shown) [Compound 8, 5-[4-(2,6-difluoro-benzoylamino)-phenyl]-4-methyl-2,4-dihydro-2H-pyridine-1-carboxylic acid ethyl ester]",95
5,"CC1=C(c2ccc(NC(=O)c3scnc3Cl)cc2)CCCC1 [Compound 28, 4-Chloro-thiazole-5-carboxylic acid [4-(2-methyl-cyclohex-1-enyl)-phenyl]-amide]",143
6,"C=CC1=C(c2ccc(NC(=O)c3c(F)cccc3F)cc2)CCN(C(=O)OC)CC1 [Compound 40, 2,6-Difluoro-N-[4-(1-methoxycarbonyl-5-vinyl-2,3,6,7-tetrahydro-1H-azepin-4-yl)-phenyl]-benzamide]",22.8
7,"COC(=O)C1=C(c2ccc(NC(=O)c3c(F)cccc3F)cc2)CCCCC1 [Compound 35, 2,6-Difluoro-N-[4-(2-methoxycarbonyl-cyclohept-1-enyl)-phenyl]-benzamide]",104
8,"CC1=C(c2ccc(NC(=O)c3c(F)cccc3F)cc2)CN(C#N)CC1 [Compound 58, 2,6-Difluoro-N-[4-(1-cyano-4-methyl-1,2,5,6-tetrahydro-pyridin-3-yl)-phenyl]-benzamide]",> 1000
9,CC1=C(c2ccc(NC(=O)c3c(F)cccc3F)cc2)CN(C(=O)c2cccnc2)CC1 [Compound 64],962
10,"CC(C)=C(C)c1ccc(NC(=O)c2ccncc2F)cc1 [Compound 13, 3-Fluoro-N-(4-(3-methylbut-2-en-2-yl)phenyl)-isonicotinamide]",382
11,"CC1=C(c2ccc(NC(=O)c3ccncc3C)cc2)CN(S(=O)(=O)c2ccccc2)CC1 [Compound 61, N-[4-(1-phenylsulfonyl-4-methyl-1,2,5,6-tetrahydro-pyridin-3-yl)-phenyl]-3-methyl-isonicotinamide]",164
12,"CC1=C(c2ccc(NC(=O)c3ncncc3C)cc2)CN(c2nc(C)c(C)o2)CC1 [Compound 81, 5-Methyl-pyrimidine-4-carboxylic acid {4-[1-(4,5-dimethyl-oxazol-2-yl)-4-methyl-1,2,5,6-tetrahydro-pyridin-3-yl]-phenyl}-amide]",> 1000
13,"CC1=C(c2ccc(NC(=O)c3c(F)cccc3F)cc2)CN(c2nccs2)CC1 [Compound 44, 2,6-Difluoro-N-[4-(1-thiazol-2-yl-4-methyl-1,2,5,6-tetrahydro-pyridin-3-yl)-phenyl]-benzamide]",12
14,"C=C(C)[C@@H]1CCC(C)=C(c2ccc(NC(=O)c3ccncc3C)cc2)C1 [Compound 2, 3-Methyl-N-[4-(2-methyl-5(R)-isopropenyl-cyclohex-1-enyl)-phenyl]-isonicotinamide]",11
15,"CCC1=C(c2ccc(NC(=O)c3c(F)cccc3F)cc2)CCCC1 [Compound 29, N-[4-(2-ethyl-cyclohex-1-enyl)-phenyl]-2,6-difluoro-benzamide]",17.4
16,"COC(=O)N1CCC(C(C)C)=C(c2ccc(NC(=O)c3c(F)cccc3F)cc2)C1 [Compound 42, 2,6-Difluoro-N-[4-(1-methoxycarbonyl-4-isopropyl-1,2,5,6-tetrahydro-pyridin-3-yl)-phenyl]-benzamide]",11.9
17,"CC1=C(c2ccc(NC(=O)c3c(F)cccc3F)cc2)CN(C(=O)C2CC2)CC1 [Compound 63, 2,6-Difluoro-N-[4-(1-cyclopropylcarbonyl-4-methyl-1,2,5,6-tetrahydro-pyridin-3-yl)-phenyl]-benzamide]",182
18,"COC(=O)N1CCC(C)=C(c2ccc(NC(=O)c3ccncc3F)cc2)C1 [Compound 45, N-[4-(1-methoxycarbonyl-4-methyl-1,2,5,6-tetrahydro-pyridin-3-yl)-phenyl]-3-fluoro-isonicotinamide]",248

row,Structure (SMILES),IC50 [nM]
1,"COc1cccc(C(=C(C)C)c2ccc(NC(=O)c3c(F)cccc3F)cc2)c1 [Compound 94, 2,6-Difluoro-N-{4-[2-methyl-1-(3-methoxy-phenyl)-propenyl]-phenyl}-benzamide]",138
2,"O=C(Nc1ccc(C2=C(Cl)CCCC2)cc1)c1c(F)cccc1F [Compound 21, N-[4-(2-chloro-cyclohex-1-enyl)-phenyl]-2,6-difluoro-benzamide]",23.2
3,"CC1=C(c2ccc(NC(=O)c3c(F)cccc3F)cc2)CN(C)CC1 [Compound 10, N-(4-(1,4-dimethyl-1,2,5,6-tetrahydropyridin-3-yl)phenyl)-2,6-difluorobenzamide]",> 1000
4,"CC1=C(c2ccc(NC(=O)c3ccncc3F)cc2)CN(c2ncco2)CC1 [Compound 71, N-[4-(1-oxazol-2-yl-4-methyl-1,2,5,6-tetrahydro-pyridin-3-yl)-phenyl]-3-fluoro-isonicotinamide]",44
5,"C=C(C)[C@@H]1CCC(C)=C(c2ccc(NC(=O)c3ccncc3F)cc2)C1 [Compound 4, 3-Fluoro-N-[4-(2-methyl-5(R)-isopropenyl-cyclohex-1-enyl)-phenyl]-isonicotinamide]",7
6,"CC(=O)N1CCC(C)=C(c2ccc(NC(=O)c3c(F)cccc3F)cc2)C1 [Compound 62, 2,6-Difluoro-N-[4-(1-acetyl-4-methyl-1,2,5,6-tetrahydro-pyridin-3-yl)-phenyl]-benzamide]",431
7,"CC1=C(c2ccc(NC(=O)c3c(F)cccc3F)cc2)CN(C(N)=S)CC1 [Compound 73, 2,6-Difluoro-N-[4-(1-thiocarbamoyl-4-methyl-1,2,5,6-tetrahydro-pyridin-3-yl)-phenyl]-benzamide]",456
8,"CCOC(=O)C1=C(c2ccc(NC(=O)c3c(F)cccc3F)cc2)CCN(C(=O)OC)CC1 [Compound 39, 2,6-Difluoro-N-[4-(1-methoxycarboxyl-5-ethoxycarbonyl-2,3,6,7-tetrahydro-1H-azepin-4-yl)-phenyl]-benzamide]",380
9,"COC(=O)N1CCC(c2nccs2)=C(c2ccc(NC(=O)c3c(F)cccc3F)cc2)C1 [Compound 41, 2,6-Difluoro-N-[4-(1-methoxycarbonyl-4-thiazol-2-yl-1,2,5,6-tetrahydro-pyridin-3-yl)-phenyl]-benzamide]",308
10,"O=CC1=C(c2ccc(NC(=O)c3c(F)cccc3F)cc2)CCCCC1 [Compound 37, 2,6-Difluoro-N-[4-(2-formyl-cyclohept-1-enyl)-phenyl]-benzamide]",774
11,"CCOC(=O)N1CCC(C)=C(c2ccc(NC(=O)c3c(F)cccc3F)cc2)C1 [Compound 12, Ethyl 3-(4-(2,6-difluorobenzamido)phenyl)-4-methyl-5,6-dihydropyridine-1(2H)-carboxylate]",23
12,"CC1=C(c2ccc(NC(=O)c3ccncc3F)cc2)CCCC1 [Compound 1, 3-Fluoro-N-[4-(2-methyl-cyclohex-1-enyl)-phenyl]-isonicotinamide]",84
13,"C=CC1=C(c2ccc(NC(=O)c3c(F)cccc3F)cc2)CCCC1 [Compound 101, N-[4-(2-vinyl-cyclohex-1-enyl)-phenyl]-2,6-difluoro-benzamide]",11
14,"COC(=O)N1CCC(C)=C(c2ccc(NC(=O)c3c(F)cccc3F)cc2)C1 [Compound 49, 2,6-Difluoro-N-[4-(1-methoxycarbonyl-4-methyl-1,2,5,6-tetrahydro-pyridin-3-yl)-phenyl]-benzamide]",16.2
15,O=C(Nc1ccc(C2=C(c3cnco3)CCCCC2)cc1)c1c(F)cccc1F [Compound 38],23.1
16,"C=CCOC(=O)N1CCC(c2ccc(NC(=O)c3c(F)cccc3F)cc2)=C(C)C1 [Compound 54, 2,6-Difluoro-N-[4-(1-allyloxycarbonyl-3-methyl-1,2,5,6-tetrahydro-pyridin-4-yl)-phenyl]-benzamide]",235
17,C=C(C)[C@H]1CCC(C)=C(c2ccc(NC(=O)c3ccncc3F)nc2)C1 [Compound 5],13.9
18,"O=C(Nc1ccc(C2=C(c3cnco3)CCC2)cc1)c1c(F)cccc1F [Compound 34, 2,6-Difluoro-N-[4-(2-oxazol-5-yl-cyclopent-1-enyl)-phenyl]-benzamide]",20.5

# Same assay, conditions: Homo sapiens, PHA 2.5 μg/mL, 20 hours, IL-2 ELISA
row,Structure (SMILES),IC50 [nM]
1,"CC1=C(c2ccc(NC(=O)c3c(F)cccc3F)cc2)CCNC1 [Compound 17, 2,6-Difluoro-N-(4-(5-methyl-1,2,3,6-tetrahydropyridin-4-yl)phenyl)benzamide]",> 1000

# Same assay, conditions: PHA 2.5 μg/mL, 20 hours, IL-2 ELISA, dihydrochloride
row,Structure (SMILES),IC50 [nM]
1,"CC1=C(c2ccc(NC(=O)c3ccncc3F)cc2)CN(c2nccs2)CC1 [Compound 74, N-[4-(1-thiazol-2-yl-4-methyl-1,2,5,6-tetrahydro-pyridin-3-yl)-phenyl]-3-fluoro-isonicotinamide, dihydrochloride]",5

# Same assay, conditions: PHA 2.5 μg/mL, 20 hours, IL-2 ELISA, hydrochloride
row,Structure (SMILES),IC50 [nM]
1,"CC1=C(c2ccc(NC(=O)c3c(F)cccc3F)cc2)CN(c2nccs2)CC1 [Compound 75, 2,6-Difluoro-N-[4-(1-thiazol-2-yl-4-methyl-1,2,5,6-tetrahydro-pyridin-3-yl)-phenyl]-benzamide, hydrochloride]",11
2,"CCOC(=O)N1CCC(C)=C(c2ccc(NC(=O)c3ccncc3C)cc2)C1 [Compound 50, N-[4-(1-ethoxycarbonyl-4-methyl-1,2,5,6-tetrahydro-pyridin-3-yl)-phenyl]-3-methyl-isonicotinamide, hydrochloride]",177
